Experimental data published in patent US20030215462A1, “Use of UGT inhibitors to increase bioavailability” (priority 2001, published 2003).
Each block holds one compound with its values, some of them ahead of it.

How the values were obtained:
UGT1A1 [1] = target: T1, UGT1A1 (Homo sapiens, UniProt P22309); assay: Inhibition of raloxifene glucuronidation by recombinant UGT1A1 Supersomes; settings: UGT1A1
T1 sequence (P22309 26-533): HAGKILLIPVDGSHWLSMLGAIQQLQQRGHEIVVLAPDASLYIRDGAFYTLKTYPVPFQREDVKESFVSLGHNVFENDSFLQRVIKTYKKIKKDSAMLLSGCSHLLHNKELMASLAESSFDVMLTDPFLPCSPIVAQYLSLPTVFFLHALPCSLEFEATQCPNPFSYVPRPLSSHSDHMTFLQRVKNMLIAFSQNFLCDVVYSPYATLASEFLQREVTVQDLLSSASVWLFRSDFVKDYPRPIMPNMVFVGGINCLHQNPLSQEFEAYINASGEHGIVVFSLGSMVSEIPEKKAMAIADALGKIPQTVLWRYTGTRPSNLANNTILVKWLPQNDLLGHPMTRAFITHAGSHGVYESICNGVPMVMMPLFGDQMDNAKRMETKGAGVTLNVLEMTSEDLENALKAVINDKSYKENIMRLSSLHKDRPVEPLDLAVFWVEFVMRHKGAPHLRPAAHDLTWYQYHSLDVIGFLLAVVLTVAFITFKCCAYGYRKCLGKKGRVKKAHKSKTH
Procedure: (§2) Compounds were eluted using a binary solvent gradient system. Solvent A was water brought to pH 8 with NH4OH. Solvent B was methanol. Solvent flow rate was 1 ml/min and the column temperature was maintained at 50° C. Detection was at 280 nm. […] The system was then returned to the initial conditions and equilibrated for 3 min.

[2] = tested on: UGT enzymes of human liver microsomes; assay: Inhibition of raloxifene glucuronidation (G1, G2) in human liver microsomes; type: biochemical; settings: raloxifene 50 μM; for % of control metabolism (SD, n = 3), raloxifene glucuronide G1 / % of control metabolism (SD, n = 3), raloxifene glucuronide G2: human liver microsomes 250 μg/ml, 15 min
Text: Compounds were eluted using a binary solvent gradient system. […] Solvent B was methanol. […] Detection was at 280 nm.

UGT1A10 [3] = target: T2, UGT1A10 (Homo sapiens, UniProt Q9HAW8); assay: Inhibition of raloxifene glucuronidation by recombinant UGT1A10 Bacculosomes
T2 sequence (Q9HAW8 26-530): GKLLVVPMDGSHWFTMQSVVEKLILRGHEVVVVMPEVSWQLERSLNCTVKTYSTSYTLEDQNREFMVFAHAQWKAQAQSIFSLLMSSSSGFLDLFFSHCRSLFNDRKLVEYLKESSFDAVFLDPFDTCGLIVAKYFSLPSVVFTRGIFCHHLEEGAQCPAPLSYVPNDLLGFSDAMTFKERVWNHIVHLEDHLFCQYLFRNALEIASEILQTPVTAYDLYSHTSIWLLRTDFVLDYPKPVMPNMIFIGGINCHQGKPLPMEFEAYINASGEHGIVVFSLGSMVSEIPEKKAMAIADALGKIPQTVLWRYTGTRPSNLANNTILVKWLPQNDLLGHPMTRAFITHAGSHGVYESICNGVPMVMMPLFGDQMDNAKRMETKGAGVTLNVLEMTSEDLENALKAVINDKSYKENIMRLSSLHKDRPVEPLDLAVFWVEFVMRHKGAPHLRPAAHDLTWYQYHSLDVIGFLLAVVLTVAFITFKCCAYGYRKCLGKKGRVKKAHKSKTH
Procedure: as §2

UGT1A10 [4] = target: T2, UGT1A10; assay: in vitro; settings: pH 7.5, % of control metabolism
Procedure: as §2

UGT1A1 [5] = target: T1, UGT1A1; assay: in vitro
Procedure: as §2

[6] = tested on: UGT enzymes of pooled human jejunum microsomes; assay: Inhibition of 2ME2 glucuronidation (MG1) in pooled human jejunum microsomes; type: biochemical; settings: jejunum HJ61, 2ME2 50 μM
Text: (§1) Compounds were eluted using a binary solvent gradient system where solvent A was dilute phosphoric acid (pH 3) and solvent B was 80:20 acetonitrile-methanol. […] Detection was at 280 nm.

UGT1A9 = target: T3, UGT1A9 (Homo sapiens, UniProt O60656); assay: in vitro; settings: pH 7.5, % of control metabolism
T3 sequence (O60656 26-530): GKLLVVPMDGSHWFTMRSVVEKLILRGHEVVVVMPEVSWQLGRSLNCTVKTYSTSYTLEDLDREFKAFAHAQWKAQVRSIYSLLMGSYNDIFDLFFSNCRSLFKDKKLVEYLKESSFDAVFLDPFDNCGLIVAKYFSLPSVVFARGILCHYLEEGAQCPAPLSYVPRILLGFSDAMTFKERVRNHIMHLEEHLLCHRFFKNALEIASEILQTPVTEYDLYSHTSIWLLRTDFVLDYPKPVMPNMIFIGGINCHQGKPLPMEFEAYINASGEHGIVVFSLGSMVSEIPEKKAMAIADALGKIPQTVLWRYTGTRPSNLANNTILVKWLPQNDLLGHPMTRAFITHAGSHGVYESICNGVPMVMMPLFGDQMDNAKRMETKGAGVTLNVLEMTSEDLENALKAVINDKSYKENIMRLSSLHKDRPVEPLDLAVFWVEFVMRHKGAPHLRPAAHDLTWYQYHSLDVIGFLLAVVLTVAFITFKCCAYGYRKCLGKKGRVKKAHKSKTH
Procedure: as §2

[7] = tested on: UGT enzymes of pooled human jejunum microsomes; assay: Inhibition of zidovudine glucuronidation in pooled human jejunum microsomes; type: biochemical; settings: inhibitor 200 μM
Procedure: Increasing the microsomal protein concentration to 1 mg/ml and extending the incubation time to 60 min provided meaningful metabolite levels for inhibition studies.

[8] = tested on: T4, UGT enzymes of human liver microsomes; assay: Kinetic and Ki studies of inhibitors of 7-HFC glucuronidation in human liver microsomes; type: biochemical; settings: 7-HFC 20-500 μM
T4 construct: percentage of control metabolism, 7-HFC glucuronidation; percentage of control metabolism, 7-HFC glucuronidation

UGT1A3 = target: T5, UGT1A3 (Homo sapiens, UniProt P35503); assay: in vitro
T5 sequence (P35503 29-534): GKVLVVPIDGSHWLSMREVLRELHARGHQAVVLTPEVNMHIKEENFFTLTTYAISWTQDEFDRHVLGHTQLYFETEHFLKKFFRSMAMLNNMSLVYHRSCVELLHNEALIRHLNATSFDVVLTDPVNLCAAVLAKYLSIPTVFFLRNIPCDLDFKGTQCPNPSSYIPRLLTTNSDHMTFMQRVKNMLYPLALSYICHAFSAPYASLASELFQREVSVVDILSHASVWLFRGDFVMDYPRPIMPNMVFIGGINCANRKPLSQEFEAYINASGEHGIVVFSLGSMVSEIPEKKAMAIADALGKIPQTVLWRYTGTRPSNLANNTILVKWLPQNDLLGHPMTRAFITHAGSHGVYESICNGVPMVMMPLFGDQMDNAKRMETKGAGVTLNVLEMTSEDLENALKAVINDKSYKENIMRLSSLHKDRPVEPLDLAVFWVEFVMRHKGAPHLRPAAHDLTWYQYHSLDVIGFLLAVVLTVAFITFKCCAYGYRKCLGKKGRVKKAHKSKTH
Procedure: as §2

[9] = tested on: T6, UGT enzymes of human liver microsomes; assay: Inhibition of 2ME2 glucuronidation (MG1, MG2) in human liver microsomes; type: biochemical; settings: liver 062101, 2ME2 50 μM
T6 construct: other: liver 062101
Text: as §1

[10] = cited from earlier work
[11] = tested on: T4, UGT enzymes of human liver microsomes; assay: Inhibition of 7-HFC glucuronidation in human liver microsomes; type: biochemical; settings: inhibitor 500 μM; 7-HFC 50 μM, human liver microsomes 100 μg/ml, 15 min
[12] = pH 7.5, % of control metabolism, raloxifene G1
[13] = pH 7.5, % of control metabolism, raloxifene G2

inhibition of raloxifene glucuronidation, in words (UGT1A1 [1]): poor inhibitors
% of control metabolism (SD, n = 3), raloxifene glucuronide G1 ([2]; inhibitor 50 μM): 65 (1) %
% of control metabolism (SD, n = 3), raloxifene glucuronide G1 ([2]; inhibitor 100 μM): 50 (3) %
% of control metabolism (SD, n = 3), raloxifene glucuronide G1 ([2]; inhibitor 500 μM): 6 (1) %
% of control metabolism (SD, n = 3), raloxifene glucuronide G2 ([2]; inhibitor 50 μM): 67 (1) %
% of control metabolism (SD, n = 3), raloxifene glucuronide G2 ([2]; inhibitor 100 μM): 53 (3) %
% of control metabolism (SD, n = 3), raloxifene glucuronide G2 ([2]; inhibitor 500 μM): 6 (1) %
% of control metabolism, raloxifene G1 ([2]; inhibitor 50 μM): 65 (1) %
% of control metabolism, raloxifene G2 ([2]; inhibitor 50 μM): 67 (1) %
% of control metabolism, raloxifene G1 ([2]; inhibitor 100 μM): 50 (3) %
% of control metabolism, raloxifene G2 ([2]; inhibitor 100 μM): 53 (3) %
inhibition of raloxifene glucuronidation, in words (UGT1A10 [3]): poor inhibitors
activity at 15 min, 50 µM (UGT1A10 [4]; raloxifene G1): 97%
activity at 15 min, 50 µM (UGT1A10 [4]; raloxifene G2): 93%
activity at 15 min, 50 µM (UGT1A1 [5]; [12]): 66%
activity at 15 min, 50 µM (UGT1A1 [5]; [13]): 73%
activity at 15 min, 50 µM (UGT1A1 [5]; pH 7.5, Inhibition of raloxifene glucuronidation, G1, UGT1A1): 66%
activity at 15 min, 50 µM (UGT1A1 [5]; pH 7.5, Inhibition of raloxifene glucuronidation, G2, UGT1A1): 73%
residual metabolism (% of control), 2ME2 MG1 ([6]; inhibitor 50 μM): 100 (3) %
residual metabolism (% of control), 2ME2 MG1 ([6]; inhibitor 100 μM): 97 (4) %
activity at 15 min, 50 µM (UGT1A9; raloxifene G1): 74%
activity at 15 min, 50 µM (UGT1A9; raloxifene G2): 77%
residual metabolism (percentage of control), zidovudine [7]: 18 (2) %
Vmax of 7-HFC glucuronidation (fit of the experiment with this inhibitor) [8]: 64 ± 4 nmol/min/mg
Km ([8]; read-out: Km of 7-HFC glucuronidation (fit of the experiment with this inhibitor)): 87 ± 7 µM
activity at 15 min, 50 µM (UGT1A3; [12]): 74%
activity at 15 min, 50 µM (UGT1A3; [13]): 75%
activity at 15 min, 50 µM (UGT1A3; pH 7.5, Inhibition of raloxifene glucuronidation, G1, UGT1A3): 74%
activity at 15 min, 50 µM (UGT1A3; pH 7.5, Inhibition of raloxifene glucuronidation, G2, UGT1A3): 75%
residual metabolism (% of control), 2ME2 MG1 ([9]; inhibitor 50 μM): 70 (1) %
residual metabolism (% of control), 2ME2 MG2 ([9]; inhibitor 50 μM): 60 (1) %
residual metabolism (% of control), 2ME2 MG1 ([9]; inhibitor 100 μM): 54 (1) %
residual metabolism (% of control), 2ME2 MG2 ([9]; inhibitor 100 μM): 44 (3) %
Structure (SMILES): O=C(O)Cc1ccccc1Nc1c(Cl)cccc1Cl [Diclofenac, reference compound]

% of control metabolism (SD, n = 3), raloxifene glucuronide G1 ([2]; inhibitor 500 μM): 70 (4) %
% of control metabolism (SD, n = 3), raloxifene glucuronide G2 ([2]; inhibitor 500 μM): 70 (1) %
% of control metabolism (SD, n = 3), 7-HFC glucuronidation [11]: 91 (1) %
Structure (SMILES): CCCN(CCC)S(=O)(=O)c1ccc(C(=O)O)cc1 [Probenecid, reference compound]
increase in zidovudine levels on co-administration ([10]; AIDS patients and healthy volunteers): 2 fold
reduction in diflunisal metabolism to acyl- and phenol-glucuronides ([10]; coadministration with diflunisal): 50%
